Laboratory results: patent US20240158391A1, “DERIVATIVES OF 4-(IMIDAZO[1,2-A]PYRIDIN-3-YL)-N-(PYRIDIN-3-YL) PYRIMIDIN-2- AMINE FOR TREATING PROLIFERATIVE DISEASES AND CONDITIONS” (AUCENTRA THERAPEUTICS PTY LTD, priority 2019, published 2024)

Key:
CDK2/CyclinA2 = CDK2/CyclinA2 (Homo sapiens, UniProt P24941); experiment: ADP Glo kinase assay, CDK2/CyclinA2; assay type: biochemical; details: for remaining activity at 1 µM: compound at 1 μM, read-out: Residual enzymatic activity (%) at 1 μM, CDK2 A; for Ki: Km ATP, read-out: Enzymatic inhibition, Ki, CDK2 A
Method: (§1) Test compounds are used in 1:3 serial dilutions for 10 concentrations (from 10-0.0005 μM) in 0.5% DMSO. […] The kinase reactions are run for optimised time period at room temperature and then the reaction is stopped by adding 5 μL of ADP Glo reagent.

FLT3-ITD = target: T1, FLT3-ITD (Homo sapiens, UniProt P36888); experiment: ADP Glo kinase assay, FLT3-ITD; assay type: biochemical; details: Km ATP 100 μM, read-out: Enzymatic inhibition, Ki, FLT3-ITD
T1 sequence (P36888 1-993): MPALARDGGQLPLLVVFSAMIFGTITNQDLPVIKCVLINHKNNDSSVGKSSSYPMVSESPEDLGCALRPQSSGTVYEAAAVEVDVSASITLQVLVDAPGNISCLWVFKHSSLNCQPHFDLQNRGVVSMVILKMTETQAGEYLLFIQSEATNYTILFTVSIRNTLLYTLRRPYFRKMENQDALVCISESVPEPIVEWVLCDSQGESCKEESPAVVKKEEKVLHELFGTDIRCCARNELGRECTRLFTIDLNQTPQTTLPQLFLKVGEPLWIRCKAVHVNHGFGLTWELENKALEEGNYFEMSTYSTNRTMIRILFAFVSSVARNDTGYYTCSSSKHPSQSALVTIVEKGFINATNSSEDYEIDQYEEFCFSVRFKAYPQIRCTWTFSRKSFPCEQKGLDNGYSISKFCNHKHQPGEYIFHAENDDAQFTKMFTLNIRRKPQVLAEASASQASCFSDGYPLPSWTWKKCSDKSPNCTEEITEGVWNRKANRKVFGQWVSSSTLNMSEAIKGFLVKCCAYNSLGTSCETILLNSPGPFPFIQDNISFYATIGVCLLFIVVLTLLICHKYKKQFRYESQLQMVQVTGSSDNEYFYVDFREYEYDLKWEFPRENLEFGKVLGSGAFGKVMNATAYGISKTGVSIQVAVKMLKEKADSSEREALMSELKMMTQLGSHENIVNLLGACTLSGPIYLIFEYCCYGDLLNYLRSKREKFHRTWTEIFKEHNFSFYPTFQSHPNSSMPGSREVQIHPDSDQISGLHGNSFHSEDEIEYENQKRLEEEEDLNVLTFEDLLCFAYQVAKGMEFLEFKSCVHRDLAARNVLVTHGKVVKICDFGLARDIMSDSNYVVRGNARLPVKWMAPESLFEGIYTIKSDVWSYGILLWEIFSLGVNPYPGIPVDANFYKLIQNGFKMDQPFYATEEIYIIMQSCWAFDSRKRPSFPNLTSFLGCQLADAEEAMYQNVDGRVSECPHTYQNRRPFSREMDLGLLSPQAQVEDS
Method: as §1

MV-4-11 = experiment: Proliferation assay (resazurin, leukemia cell lines), MV-4-11; assay type: cell-based; details: Homo sapiens, MV4-11, read-out: 72 h Growth inhibition GI50, MV-4-11 cells
Source text: The following compounds were used as comparators.

CDK7/CyclinH/Mat1 = CDK7/CyclinH/Mat1 (Homo sapiens, UniProt P50613); experiment: ADP Glo kinase assay, CDK7/CyclinH/Mat1; assay type: biochemical; details: for remaining activity at 1 µM: compound at 1 μM, read-out: Residual enzymatic activity (%) at 1 μM, CDK7 H; for Ki: Km ATP, read-out: Enzymatic inhibition, Ki, CDK7 H
Method: as §1

CDK4/CyclinD1 = CDK4/CyclinD1 (Homo sapiens, UniProt P11802); experiment: ADP Glo kinase assay, CDK4/CyclinD1; assay type: biochemical; details: for remaining activity at 1 µM: compound at 1 μM, read-out: Residual enzymatic activity (%) at 1 μM, CDK4 D1; for Ki: Km ATP, read-out: Enzymatic inhibition, Ki, CDK4 D1
Method: as §1

CDK6/CyclinD3 = CDK6/CyclinD3 (Homo sapiens, UniProt Q00534); experiment: ADP Glo kinase assay, CDK6/CyclinD3; assay type: biochemical; details: for remaining activity at 1 µM: compound at 1 μM, read-out: Residual enzymatic activity (%) at 1 μM, CDK6 D3; for Ki: Km ATP, read-out: Enzymatic inhibition, Ki, CDK6 D3
Method: as §1

CDK9/CyclinT1 = CDK9/CyclinT1 (Homo sapiens, UniProt P50750); experiment: ADP Glo kinase assay, CDK9/CyclinT1; assay type: biochemical; details: CDK9/CyclinT1; Km ATP; read-out: Enzymatic inhibition, Ki, CDK9 T1
Method: as §1

CDK1/CyclinB = CDK1/CyclinB (Homo sapiens, UniProt P06493); experiment: ADP Glo kinase assay, CDK1/CyclinB; assay type: biochemical; details: for remaining activity at 1 µM: compound at 1 μM, read-out: Residual enzymatic activity (%) at 1 μM, CDK1 B; for Ki: Km ATP, read-out: Enzymatic inhibition, Ki, CDK1 B
Method: as §1

Sequence of CDK4/CyclinD1 (P11802 whole entry, species assumed): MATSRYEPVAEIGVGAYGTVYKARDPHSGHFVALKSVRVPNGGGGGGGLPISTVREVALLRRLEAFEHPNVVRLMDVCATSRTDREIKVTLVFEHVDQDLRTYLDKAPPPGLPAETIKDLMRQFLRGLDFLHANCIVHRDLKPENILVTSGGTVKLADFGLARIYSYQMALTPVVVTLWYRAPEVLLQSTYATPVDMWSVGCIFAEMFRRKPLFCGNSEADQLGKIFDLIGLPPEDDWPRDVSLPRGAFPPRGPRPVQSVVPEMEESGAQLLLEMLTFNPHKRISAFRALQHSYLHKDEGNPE
Sequence of CDK4/CyclinD1 (P24385 whole entry partner, species assumed): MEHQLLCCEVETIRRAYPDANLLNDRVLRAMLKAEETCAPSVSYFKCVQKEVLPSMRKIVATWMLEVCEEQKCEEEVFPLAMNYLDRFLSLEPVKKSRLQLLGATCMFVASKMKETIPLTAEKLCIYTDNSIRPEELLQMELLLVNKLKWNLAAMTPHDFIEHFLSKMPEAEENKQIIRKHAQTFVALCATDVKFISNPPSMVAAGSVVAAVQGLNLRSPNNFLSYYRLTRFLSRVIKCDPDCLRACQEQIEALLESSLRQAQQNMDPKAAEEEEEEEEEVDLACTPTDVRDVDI
Sequence of CDK1/CyclinB (P06493 whole entry, species assumed): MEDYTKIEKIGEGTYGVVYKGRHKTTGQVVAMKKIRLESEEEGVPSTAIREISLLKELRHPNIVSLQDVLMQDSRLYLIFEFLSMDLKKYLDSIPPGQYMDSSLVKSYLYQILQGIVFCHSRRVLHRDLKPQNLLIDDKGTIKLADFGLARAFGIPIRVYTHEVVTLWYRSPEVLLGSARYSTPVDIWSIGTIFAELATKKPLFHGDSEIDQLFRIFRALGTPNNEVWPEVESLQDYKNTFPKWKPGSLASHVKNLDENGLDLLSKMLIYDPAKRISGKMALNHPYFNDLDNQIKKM
Sequence of CDK1/CyclinB (P14635 whole entry partner, species assumed): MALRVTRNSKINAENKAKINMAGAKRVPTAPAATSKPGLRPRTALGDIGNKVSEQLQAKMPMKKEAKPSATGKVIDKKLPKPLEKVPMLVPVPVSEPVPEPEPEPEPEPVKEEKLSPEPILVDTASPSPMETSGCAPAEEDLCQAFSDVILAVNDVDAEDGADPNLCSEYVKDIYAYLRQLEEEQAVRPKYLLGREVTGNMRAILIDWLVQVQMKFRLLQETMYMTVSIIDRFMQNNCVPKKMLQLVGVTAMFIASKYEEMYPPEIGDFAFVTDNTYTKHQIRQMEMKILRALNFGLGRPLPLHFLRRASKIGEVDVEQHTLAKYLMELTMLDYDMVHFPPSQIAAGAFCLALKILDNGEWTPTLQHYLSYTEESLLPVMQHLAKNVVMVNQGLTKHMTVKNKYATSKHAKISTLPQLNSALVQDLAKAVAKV
Sequence of CDK9/CyclinT1 (P50750 whole entry, species assumed): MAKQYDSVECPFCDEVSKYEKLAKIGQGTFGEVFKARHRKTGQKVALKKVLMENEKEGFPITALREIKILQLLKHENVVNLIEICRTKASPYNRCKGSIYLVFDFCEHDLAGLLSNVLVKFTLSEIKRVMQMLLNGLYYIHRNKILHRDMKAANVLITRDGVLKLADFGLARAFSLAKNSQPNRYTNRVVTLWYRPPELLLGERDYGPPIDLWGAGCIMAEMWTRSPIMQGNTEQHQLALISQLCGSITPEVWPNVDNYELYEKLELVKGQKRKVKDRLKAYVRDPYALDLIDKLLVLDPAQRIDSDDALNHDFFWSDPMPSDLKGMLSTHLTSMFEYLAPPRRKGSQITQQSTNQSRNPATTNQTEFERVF
Sequence of CDK9/CyclinT1 (O60563 whole entry partner, species assumed): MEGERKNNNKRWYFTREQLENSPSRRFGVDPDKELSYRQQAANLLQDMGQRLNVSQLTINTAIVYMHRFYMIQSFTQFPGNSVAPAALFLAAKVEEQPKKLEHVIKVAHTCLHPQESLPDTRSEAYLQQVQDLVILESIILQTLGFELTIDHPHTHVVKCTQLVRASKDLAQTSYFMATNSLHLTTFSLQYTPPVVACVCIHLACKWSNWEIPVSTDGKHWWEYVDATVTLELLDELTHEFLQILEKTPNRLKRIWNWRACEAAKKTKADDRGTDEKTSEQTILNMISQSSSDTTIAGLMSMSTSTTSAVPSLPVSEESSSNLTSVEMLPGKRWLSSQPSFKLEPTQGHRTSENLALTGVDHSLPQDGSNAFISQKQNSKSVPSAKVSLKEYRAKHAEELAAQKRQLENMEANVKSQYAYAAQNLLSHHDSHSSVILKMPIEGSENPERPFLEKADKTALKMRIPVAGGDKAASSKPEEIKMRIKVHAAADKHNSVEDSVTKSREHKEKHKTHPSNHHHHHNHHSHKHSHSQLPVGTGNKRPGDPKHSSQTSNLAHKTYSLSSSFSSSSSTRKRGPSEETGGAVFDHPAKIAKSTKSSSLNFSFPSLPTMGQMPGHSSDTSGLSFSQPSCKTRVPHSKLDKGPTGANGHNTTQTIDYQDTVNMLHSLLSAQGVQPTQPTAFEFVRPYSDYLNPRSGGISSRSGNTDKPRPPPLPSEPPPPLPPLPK
Sequence of CDK6/CyclinD3 (Q00534 whole entry, species assumed): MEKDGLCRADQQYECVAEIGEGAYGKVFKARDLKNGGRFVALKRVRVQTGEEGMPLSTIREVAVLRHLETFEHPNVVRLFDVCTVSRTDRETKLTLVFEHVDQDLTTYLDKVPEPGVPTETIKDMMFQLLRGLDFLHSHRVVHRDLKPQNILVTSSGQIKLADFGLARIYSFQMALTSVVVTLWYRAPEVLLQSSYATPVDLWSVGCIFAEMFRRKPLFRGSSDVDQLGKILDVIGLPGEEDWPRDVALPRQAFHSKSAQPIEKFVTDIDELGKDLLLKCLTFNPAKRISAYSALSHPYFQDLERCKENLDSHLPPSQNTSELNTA
Sequence of CDK6/CyclinD3 (P30281 whole entry partner, species assumed): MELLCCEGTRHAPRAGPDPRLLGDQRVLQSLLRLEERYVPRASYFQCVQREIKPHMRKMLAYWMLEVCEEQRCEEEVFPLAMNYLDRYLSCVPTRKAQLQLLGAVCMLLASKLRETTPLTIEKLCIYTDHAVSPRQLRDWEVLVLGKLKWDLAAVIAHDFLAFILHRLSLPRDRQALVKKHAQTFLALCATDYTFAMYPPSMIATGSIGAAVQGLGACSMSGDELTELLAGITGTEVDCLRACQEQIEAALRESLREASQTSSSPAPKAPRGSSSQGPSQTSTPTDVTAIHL
Sequence of CDK7/CyclinH/Mat1 (P50613 whole entry, species assumed): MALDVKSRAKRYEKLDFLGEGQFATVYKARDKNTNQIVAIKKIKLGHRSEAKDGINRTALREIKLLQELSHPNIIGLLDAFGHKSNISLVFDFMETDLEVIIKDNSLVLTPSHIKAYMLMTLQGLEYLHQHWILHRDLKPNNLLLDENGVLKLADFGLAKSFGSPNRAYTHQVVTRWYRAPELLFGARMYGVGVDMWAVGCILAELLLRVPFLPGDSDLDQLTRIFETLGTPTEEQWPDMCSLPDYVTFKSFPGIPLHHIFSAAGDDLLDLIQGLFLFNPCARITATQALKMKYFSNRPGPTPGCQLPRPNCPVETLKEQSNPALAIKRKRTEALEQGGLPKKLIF
Sequence of CDK7/CyclinH/Mat1 (P51946 whole entry partner, species assumed): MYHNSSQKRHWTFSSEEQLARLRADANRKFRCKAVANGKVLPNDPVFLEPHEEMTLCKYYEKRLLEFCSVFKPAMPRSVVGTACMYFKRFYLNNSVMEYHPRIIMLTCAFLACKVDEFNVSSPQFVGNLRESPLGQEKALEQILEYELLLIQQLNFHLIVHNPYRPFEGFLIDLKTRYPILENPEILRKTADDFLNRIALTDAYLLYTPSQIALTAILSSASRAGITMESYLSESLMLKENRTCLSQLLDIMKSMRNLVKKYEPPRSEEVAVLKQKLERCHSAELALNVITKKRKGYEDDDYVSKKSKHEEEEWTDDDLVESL
Sequence of CDK7/CyclinH/Mat1 (P51948 whole entry partner, species assumed): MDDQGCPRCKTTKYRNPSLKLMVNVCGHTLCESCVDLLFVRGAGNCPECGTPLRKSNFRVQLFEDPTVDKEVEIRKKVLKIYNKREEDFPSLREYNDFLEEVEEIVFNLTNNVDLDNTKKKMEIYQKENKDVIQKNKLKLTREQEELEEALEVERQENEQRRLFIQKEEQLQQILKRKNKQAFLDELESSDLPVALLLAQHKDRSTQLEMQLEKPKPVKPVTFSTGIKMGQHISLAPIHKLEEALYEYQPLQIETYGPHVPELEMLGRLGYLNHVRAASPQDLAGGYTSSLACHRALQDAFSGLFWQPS

Row | Structure (SMILES) | remaining activity at 1 µM (CDK2/CyclinA2) [%] | Ki (FLT3-ITD) [nM] | GI50 (MV-4-11) [nM] | remaining activity at 1 µM (CDK7/CyclinH/Mat1) [%] | remaining activity at 1 µM (CDK4/CyclinD1) [%] | remaining activity at 1 µM (CDK6/CyclinD3) [%] | Ki (CDK9/CyclinT1) [nM] | remaining activity at 1 µM (CDK1/CyclinB) [%] | Ki (CDK2/CyclinA2) [nM] | Ki (CDK7/CyclinH/Mat1) [nM] | Ki (CDK4/CyclinD1) [nM] | Ki (CDK6/CyclinD3) [nM] | Ki (CDK1/CyclinB) [nM]
1 | CC(=O)N1CCN(c2ccc(Nc3nccc(-c4cnc5ccc(-c6cccc7[nH]ccc67)cn45)n3)cn2)CC1 [Compound 49, 1-(4-(5-((4-(6-(1H-Indol-4-yl)imidazo[1,2-a]pyridin-3-yl)pyrimidin-2-yl)amino)pyridin-2-yl)piperazin-1-yl)ethan-1-one] | 51 | > 500 | 17 | 81 | 92 | 38 | 171 | 94 |  |  |  |  | 
2 | CC(C)N1CCN(c2ccc(Nc3nccc(-c4cnc5ccc(Cl)cn45)n3)cn2)CC1 [Compound 37, 4-(6-Chloroimidazo[1,2-a]pyridin-3-yl)-N-(6-(4-isopropylpiperazin-1-yl)pyridin-3-yl)pyrimidin-2-amine] |  | 26 | 24 |  |  |  | 14 |  | 72 | 174 | 154 | 215 | 151
3 | CN1CCN(c2ccc(Nc3ncc(F)c(-c4cnc5ccc(-c6ccccc6)cn45)n3)cn2)CC1 [Compound 28, 5-Fluoro-N-(6-(4-methylpiperazin-1-yl)pyridin-3-yl)-4-(6-phenylimidazo[1,2-a]pyridin-3-yl)pyrimidin-2-amine] |  | 65 | 233 |  | 76 | 45 | 86 | 61 | 1120 | 314 |  |  | 
4 | CC(=O)N1CCN(c2ccc(Nc3nccc(-c4cnc5ccc(Br)cn45)n3)cn2)CC1 [Compound 44, 1-(4-(5-((4-(6-Bromoimidazo[1,2-a]pyridin-3-yl)pyrimidin-2-yl)amino)pyridin-2-yl)piperazin-1-yl)ethan-1-one] | 28 | 137 | 21 | 77 | 84 | 55 | 719 | 56 |  |  |  |  | 
5 | Fc1cnc(Nc2ccc(N3CCOCC3)nc2)nc1-c1cnc2ccccn12 [Compound 15, 5-Fluoro-4-(imidazo[1,2-a]pyridin-3-yl)-N-(6-morpholinopyridin-3-yl)pyrimidin-2-amine] |  | 15 | 20 |  |  |  | 234 |  | 3 | 1630 | 543 | 1000 | 10
6 | Fc1cnc(Nc2cccnc2)nc1-c1cnc2ccccn12 [Compound 4, 5-Fluoro-4-(imidazo[1,2-a]pyridin-3-yl)-N-(pyridin-3-yl)pyrimidin-2-amine] |  | 224 | 57 |  |  |  | 41 |  | 1 | 2540 | 74 | 2900 | 2
7 | CC(=O)N1CCN(c2ccc(Nc3nccc(-c4cnc5ccc(-c6ccncc6)cn45)n3)cn2)CC1 [Compound 46, 1-(4-(5-((4-(6-(Pyridin-4-yl)imidazo[1,2-a]pyridin-3-yl)pyrimidin-2-yl)amino)pyridin-2-yl)piperazin-1-yl)ethan-1-one] | 62 | 80 | 25 | 71 | 92 | 31 | 310 | 21 |  |  |  |  | 
8 | c1ccc(-c2ccc3ncc(-c4ccnc(Nc5ccc(NC6CCOCC6)nc5)n4)n3c2)cc1 [Compound 58, N^5-(4-(6-Phenylimidazo[1,2-a]pyridin-3-yl)pyrimidin-2-yl)-N^2-(tetrahydro-2H-pyran-4-yl)pyridine-2,5-diamine] | 73 | 140 | 28 | 73 | 33 | 45 | 401 | 77 |  |  |  |  | 
9 | CS(=O)(=O)N1CCN(c2ccc(Nc3nccc(-c4cnc5ccc(-c6ccncc6)cn45)n3)cn2)CC1 [Compound 18, N-(6-(4-(Methylsulfonyl)piperazin-1-yl)pyridin-3-yl)-4-(6-(pyridin-4-yl)imidazo[1,2-a]pyridin-3-yl)pyrimidin-2-amine] |  | 27 | 1 | 28 | 47 |  | 21 |  | 557 |  |  | > 5000 | 450

The remaining lines, values ahead:

Row | remaining activity at 1 µM (CDK2/CyclinA2) [%] | Ki (FLT3-ITD) [nM] | GI50 (MV-4-11) [nM] | remaining activity at 1 µM (CDK7/CyclinH/Mat1) [%] | remaining activity at 1 µM (CDK4/CyclinD1) [%] | remaining activity at 1 µM (CDK6/CyclinD3) [%] | Ki (CDK9/CyclinT1) [nM] | remaining activity at 1 µM (CDK1/CyclinB) [%] | Ki (CDK2/CyclinA2) [nM] | Ki (CDK7/CyclinH/Mat1) [nM] | Ki (CDK4/CyclinD1) [nM] | Ki (CDK6/CyclinD3) [nM] | Ki (CDK1/CyclinB) [nM] | Structure (SMILES)
10 | 34 | 86 | 18 | 75 | 86 | 30 | 274 | 58 |  |  |  |  |  | COc1ccc(-c2ccc3ncc(-c4ccnc(Nc5ccc(N6CCN(C(C)=O)CC6)nc5)n4)n3c2)cn1 [Compound 48, 1-(4-(5-((4-(6-(6-Methoxypyridin-3-yl)imidazo[1,2-a]pyridin-3-yl)pyrimidin-2-yl)amino)pyridin-2-yl)piperazin-1-yl)ethan-1-one]
11 |  | 9 | 49 |  | 50 |  | > 5000 |  | 64 | 1730 |  | 1600 | 150 | Cc1cnc(Nc2ccc(N3CCOCC3)nc2)nc1-c1cnc2ccccn12 [Compound 14, 4-(Imidazo[1,2-a]pyridin-3-yl)-5-methyl-N-(6-morpholinopyridin-3-yl)pyrimidin-2-amine]
12 |  | 148 | 56 |  | 65 | 23 | 75 | 52 | 520 | 223 |  |  |  | Fc1cnc(Nc2ccc(N3CCN(CCN4CCOCC4)CC3)nc2)nc1-c1cnc2ccc(-c3ccccc3)cn12 [Compound 30, 5-Fluoro-N-(6-(4-(2-morpholinoethyl)piperazin-1-yl)pyridin-3-yl)-4-(6-phenylimidazo[1,2-a]pyridin-3-yl)pyrimidin-2-amine]
13 | 62 | 100 | 39 | 57 | 97 | 71 | 629 | 96 |  |  |  |  |  | CCCNc1ccc(Nc2nccc(-c3cnc4ccc(-c5cnn(C(F)F)c5)cn34)n2)cn1 [Compound 76, N^5-(4-(6-(1-(Difluoromethyl)-1H-pyrazol-4-yl)imidazo[1,2-a]pyridin-3-yl)pyrimidin-2-yl)-N^2-propylpyridine-2,5-diamine]
14 | 89 | > 1000 | 620 | 100 | 91 | 44 | > 1000 | 96 |  |  |  |  |  | O=C(c1ccc(Nc2ncc(F)c(-c3cnc4ccc(-c5ccccc5)cn34)n2)cn1)N1CCCCC1 [Compound 32, (5-((5-Fluoro-4-(6-phenylimidazo[1,2-a]pyridin-3-yl)pyrimidin-2-yl)amino)pyridin-2-yl) (piperidin-1-yl)methanone]
